Data as given in US4087561A, “Control of nitrosamine formation in nitride cured meat with 1,2,3,4-tetrahydro-quinoline compounds” (Canada Packers Limited, priority 1975, dated 1978).

Legend:
[1] = Stability of the compound; format: physicochemical
[2] = Volatile nitrosamines in cook-out fat of fried bacon cured with pumping pickle containing test compound; conditions: 150 mg = 50 ppm, in Tween 60, control sample 21 ppb
From the text: This example is representative of the use of compounds of the general formula given above in a pumping pickle.
A single pork belly (13.2 lb) was cut along the short dimension into two equal portions. Production pickle (300g), of a composition which has been generally described above, was pumped into one portion to be used as control. The other half was pumped with the same production pickle (300g) to which 1,2,3,4-tetrahydro-2,2,4-trimethyl-6-ethoxyquinoline, prepared as described in Example 1, (150 mg .ident. 50 ppm) in Tween 60 (500 mg) had been dispersed. Both portions were subsequently smoked, chilled, sliced, and packaged normally. The samples were then analyzed for nitrite content. The amount of nitrite found just before frying was 75 ppm in the control sample and 73 ppm in the test sample.
Each sample of the bacon was then fried under standard frying conditions and the cook-out fat analyzed for volatile nitrosamines.

[3] = Control of nitrosamine formation in nitrite cured meat (general statements)
[4] = Volatile nitrosamine content of cook-out fat from fried nitrite-cured bacon slices streaked with test compound in soya oil; conditions: for nitrosamine content of the fried meat: inferred from cook-out fat content; for nitrosamine content of cook-out fat from the test sample: 100 ppm on bacon slices, control sample 15 ppb
Protocol: A portion of the foregoing product was dissolved in winterized soya oil to provide a 4.5% concentration and the resulting solution was streaked on bacon slices, which had undergone a conventional nitrite cure and plant processing, in quantities providing levels of 1,2,3,4-tetrahydro-2,2,4-trimethyl-6-ethoxyquinoline of from 5 ppm to 100 ppm in the meat. Control slices of bacon were streaked with the oil alone. The bacon slices were fried under standardized conditions and the cook-out fat was analyzed for volatile nitrosamine content.
Since the analytical means available are not accurate below about 3 ppb (parts per billion), it will be seen that at levels of about 20 parts per million and greater of the test compound in the meat the amount of nitrosamines in the cook-out fat was reduced below the accurately determinable level.
A portion of the 1,2,3,4-tetrahydro-2,4-diethyl-2-methyl-6-methoxyquinolineprepared as above was dissolved in winterized soya oil (4.5% concentration) and the resulting solution was streaked on nitrite cured, plant processed bacon slices at a level of 100 ppm in the meat. Control slices of bacon received oil alone. The bacon slices were fried and the cook-out fat was analyzed for volatile nitrosamine content as in Example 1.

[5] = cited from earlier work

CCOc1ccc2c(c1)C(C)CC(C)(C)N2 (stereo not shown) [1,2,3,4-tetrahydro-2,2,4-trimethyl-6-ethoxyquinoline]
stability at room temperature ([1]; crystalline solid, room temperature): quite stable at room temperature
volatile nitrosamines in cook-out fat of test sample [2]: did not show any detectable nitrosamine
effectiveness in the control of nitrosamines in nitrite cured meats, compared with ethoxyquin [3]: equally effective
Nitrosamines in cook-out fat, test product ([4]; Table I sample 1, 100 ppm in meat, control product 29 ppb): 0 ppb
Nitrosamines in cook-out fat, test product ([4]; Table I sample 2, 80 ppm in meat, control product 19 ppb): 2 ppb
Nitrosamines in cook-out fat, test product ([4]; Table I sample 3, 40 ppm in meat, control product 19 ppb): 3 ppb
Nitrosamines in cook-out fat, test product ([4]; Table I sample 4, 20 ppm in meat, control product 19 ppb): 1 ppb
Nitrosamines in cook-out fat, test product ([4]; Table I sample 5, 10 ppm in meat, control product 19 ppb): 0 ppb
Nitrosamines in cook-out fat, test product ([4]; Table I sample 6, 10 ppm in meat, control product 18 ppb): 2 ppb
Nitrosamines in cook-out fat, test product ([4]; Table I sample 7, 5 ppm in meat, control product 19 ppb): 5 ppb
Nitrosamines in cook-out fat, test product ([4]; Table I sample 8, 20 ppm in meat, control product 31 ppb): 0 ppb
Nitrosamines in cook-out fat, test product ([4]; Table I sample 9, 10 ppm in meat, control product 31 ppb): 10 ppb
Nitrosamines in cook-out fat, test product ([4]; Table I sample 10, 5 ppm in meat, control product 31 ppb): 22 ppb
Nitrosamines in cook-out fat, test product ([4]; Table I sample 11, 20 ppm in meat, control product 36 ppb): 5 ppb
Nitrosamines in cook-out fat, test product ([4]; Table I sample 12, 10 ppm in meat, control product 36 ppb): 8 ppb
Nitrosamines in cook-out fat, test product ([4]; Table I sample 13, 5 ppm in meat, control product 36 ppb): 6 ppb
Nitrosamines in cook-out fat, test product ([4]; Table I sample 14, 100 ppm in meat, control product 49 ppb): 1 ppb
Nitrosamines in cook-out fat, test product ([4]; Table I sample 15, 20 ppm in meat, control product 39 ppb): 3 ppb
Nitrosamines in cook-out fat, test product ([4]; Table I sample 16, 10 ppm in meat, control product 39 ppb): 15 ppb
Nitrosamines in cook-out fat, test product ([4]; Table I sample 17, 20 ppm in meat, control product 25 ppb): 2 ppb
Nitrosamines in cook-out fat, test product ([4]; Table I sample 18, 10 ppm in meat, control product 25 ppb): 4 ppb
nitrosamine content of the fried meat [4]: virtually eliminated
reduction in the amount of nitrosamines formed ([4]; lesser amounts (below about 20 ppm in meat)): significant reduction in the amount of nitrosamines formed, in some instances reducing the nitrosamines below the accurately detectable level
amount of nitrosamines in the cook-out fat ([4]; levels of about 20 ppm and greater in meat, reduced below the accurately determinable level (about 3 ppb)): below 3 ppb

CCOc1ccc2c(c1)C(CC)CC(C)(CC)N2 (stereo not shown) [1,2,3,4-tetrahydro-2,4-diethyl-2-methyl-6-ethoxyquinoline]
nitrosamine content of cook-out fat from the test sample [4]: zero

CCOc1ccc2c(c1)C(C)CC(C)(CC(C)C)N2 (stereo not shown) [1,2,3,4-tetrahydro-2,4-dimethyl-2-isobutyl-6-ethoxyquinoline]
nitrosamine content of cook-out fat from the test sample [4]: 0.6 ppb

CN(C)N=O [dimethylnitrosamine]
carcinogenicity in tests on experimental animals [5]: carcinogenic

CCOc1ccc2c(c1)C(C)=CC(C)(C)N2 [ethoxyquin, 1,2-dihydro-2,2,4-trimethyl-6-ethoxyquinoline, reference compound]
stability in the presence of air (darkening) ([1]; oily yellow liquid, presence of air): rather quickly turns dark in the presence of air

COc1ccc2c(c1)CCCN2 [1,2,3,4-tetrahydro-6-methoxyquinoline]
nitrosamine content of cook-out fat from the test sample [4]: 0.6 ppb

CCC1CC(C)(CC)Nc2ccc(OC)cc21 (stereo not shown) [1,2,3,4-tetrahydro-2,4-diethyl-2-methyl-6-methoxyquinoline]
Nitrosamines in cook-out fat, test product ([4]; Table II sample 1, 100 ppm in meat, control product 51 ppb): 2 ppb
Nitrosamines in cook-out fat, test product ([4]; Table II sample 2, 100 ppm in meat, control product 15 ppb): 0 ppb
nitrosamine content of the cook-out fat ([4]; each test sample of Table II, 100 ppm in meat, reduced below the accurately detectable level): < 3 ppb
nitrosamine content of the fried meat [4]: virtually free of such substances

O=NN1CCCC1 [N-nitrosopyrrolidine]
carcinogenicity in tests on experimental animals [5]: carcinogenic
